Where a name gives a salt, the structure may show the parent alone.
Legend:
[1] = molecular target: T1, tissue plasminogen activator (tPA) (Homo sapiens, UniProt P00750); assay: chromogenic substrate protease assay with recombinant tPA; […] inhibition at […]; IC50 extrapolated ([…] min […], […] min […]); assay type: biochemical
T1 construct: gene PLAT; Human recombinant tPA (Activase)

[2] = molecular target: T1, tissue plasminogen activator (tPA); assay: chromogenic substrate protease assay with recombinant tPA (positive control inhibitor); assay type: biochemical

T1 sequence (P00750 36-562): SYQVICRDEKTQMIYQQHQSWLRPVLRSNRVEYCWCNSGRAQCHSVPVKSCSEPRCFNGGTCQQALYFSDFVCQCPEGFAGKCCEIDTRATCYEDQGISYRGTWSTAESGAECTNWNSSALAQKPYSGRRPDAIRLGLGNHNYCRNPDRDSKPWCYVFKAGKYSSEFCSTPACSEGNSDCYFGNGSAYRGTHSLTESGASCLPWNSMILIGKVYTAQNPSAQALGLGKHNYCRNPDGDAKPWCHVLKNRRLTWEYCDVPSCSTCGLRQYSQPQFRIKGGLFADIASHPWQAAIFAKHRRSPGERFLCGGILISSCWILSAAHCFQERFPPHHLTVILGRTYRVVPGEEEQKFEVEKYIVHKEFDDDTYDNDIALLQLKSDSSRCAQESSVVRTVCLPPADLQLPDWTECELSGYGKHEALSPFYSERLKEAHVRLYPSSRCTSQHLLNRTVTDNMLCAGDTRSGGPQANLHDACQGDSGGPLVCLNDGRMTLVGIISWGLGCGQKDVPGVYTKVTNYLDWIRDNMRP

SMILES: COc1cc(/C=C/c2cc(/C=C/c3ccc(O)c(OC)c3)n(-c3ccccc3)n2)ccc1O [CNB-001]
- IC50 [1]: ~65.2 µM

SMILES: N=C(N)c1ccc(C=C2CCCCC(=Cc3ccc(C(=N)N)cc3)C2=O)cc1 [tPA-STOP, 2,7-Bis-(4-amidinobenzylidene)-cycloheptan-1-one dihydrochloride]
- inhibition at 5 µM [2]: 83.4%

Source: PMC4215513, “Effect of the Pleiotropic Drug CNB-001 on Tissue Plasminogen Activator (tPA) Protease Activity in vitro: Support for Combination Therapy to Treat Acute Ischemic Stroke” (Journal of neurology & neurophysiology, 2014)
